Laboratory results from patent US11857618B2 (priority 2020, dated 2024).

Test system: phosphorylation of IRF3 in HeLa cells
Type: cell-based

Nc1nc(=O)c2ncn([C@@H]3O[C@@H]4COP(=O)(O)O[C@H]5[C@@H](O)[C@H](n6cnc7c(N)ncnc76)O[C@@H]5COP(=O)(O)O[C@@H]3[C@@H]4O)c2[nH]1 [cGAMP, 2′,3′-cGAMP (cyclic [G(2′,5′)pA(3′,5′)p])]
pIRF3 levels (band normalized to actin) as compared to untreated control: up to 3 fold
